# From the CheMixHub viscosity set
# ± gives the uncertainty stated by the source.
# Assay: xn = mol fraction of the nth substance listed
# [1] = 298.15 K, 101.33 kPa, x2 = 0.4051
smiles,measurement,setting,value
CCCCCCCCCCC + CCCCCC,viscosity,"293.15 K, 100 kPa, x2 = 0.1021",1.036 ± 0.013 mPa·s
same,viscosity,"293.15 K, 100 kPa, x2 = 0.1994",0.934 ± 0.012 mPa·s
same,viscosity,"293.15 K, 100 kPa, x2 = 0.306",0.819 ± 0.01 mPa·s
same,viscosity,"293.15 K, 100 kPa, x2 = 0.4014",0.731 ± 0.009 mPa·s
same,viscosity,"293.15 K, 100 kPa, x2 = 0.4991",0.646 ± 0.008 mPa·s
same,viscosity,"293.15 K, 100 kPa, x2 = 0.601",0.563 ± 0.007 mPa·s
same,viscosity,"293.15 K, 100 kPa, x2 = 0.7028",0.489 ± 0.006 mPa·s
same,viscosity,"293.15 K, 100 kPa, x2 = 0.7989",0.424 ± 0.005 mPa·s
same,viscosity,"293.15 K, 100 kPa, x2 = 0.9",0.364 ± 0.005 mPa·s
same,viscosity,"298.15 K, 100 kPa, x2 = 0.1021",0.958 ± 0.012 mPa·s
same,viscosity,"298.15 K, 100 kPa, x2 = 0.1994",0.867 ± 0.011 mPa·s
same,viscosity,"298.15 K, 100 kPa, x2 = 0.306",0.763 ± 0.01 mPa·s
same,viscosity,"298.15 K, 100 kPa, x2 = 0.4014",0.684 ± 0.009 mPa·s
same,viscosity,"298.15 K, 100 kPa, x2 = 0.4991",0.606 ± 0.008 mPa·s
same,viscosity,"298.15 K, 100 kPa, x2 = 0.601",0.53 ± 0.01 mPa·s
same,viscosity,"298.15 K, 100 kPa, x2 = 0.7028",0.462 ± 0.006 mPa·s
same,viscosity,"298.15 K, 100 kPa, x2 = 0.7989",0.402 ± 0.005 mPa·s
same,viscosity,"298.15 K, 100 kPa, x2 = 0.9",0.347 ± 0.004 mPa·s
same,viscosity,"298.15 K, 101.33 kPa, x2 = 0.1036",0.963 ± 0.024 mPa·s
same,viscosity,"298.15 K, 101.33 kPa, x2 = 0.1988",0.876 ± 0.022 mPa·s
same,viscosity,"298.15 K, 101.33 kPa, x2 = 0.2999",0.7746 ± 0.02 mPa·s
same,viscosity,[1],0.6933 ± 0.018 mPa·s
same,viscosity,"298.15 K, 101.33 kPa, x2 = 0.5076",0.609 ± 0.016 mPa·s
same,viscosity,"298.15 K, 101.33 kPa, x2 = 0.606",0.5391 ± 0.015 mPa·s
same,viscosity,"298.15 K, 101.33 kPa, x2 = 0.7068",0.4643 ± 0.013 mPa·s
same,viscosity,"298.15 K, 101.33 kPa, x2 = 0.8048",0.4044 ± 0.012 mPa·s
same,viscosity,"298.15 K, 101.33 kPa, x2 = 0.9022",0.3552 ± 0.011 mPa·s
same,viscosity,"303.15 K, 100 kPa, x2 = 0.1021",0.89 ± 0.011 mPa·s
same,viscosity,"303.15 K, 100 kPa, x2 = 0.1994",0.804 ± 0.01 mPa·s
same,viscosity,"303.15 K, 100 kPa, x2 = 0.306",0.712 ± 0.009 mPa·s
same,viscosity,"303.15 K, 100 kPa, x2 = 0.4014",0.64 ± 0.008 mPa·s
same,viscosity,"303.15 K, 100 kPa, x2 = 0.4991",0.57 ± 0.007 mPa·s
same,viscosity,"303.15 K, 100 kPa, x2 = 0.601",0.5 ± 0.006 mPa·s
same,viscosity,"303.15 K, 100 kPa, x2 = 0.7028",0.438 ± 0.006 mPa·s
same,viscosity,"303.15 K, 100 kPa, x2 = 0.7989",0.383 ± 0.005 mPa·s
same,viscosity,"303.15 K, 100 kPa, x2 = 0.9",0.331 ± 0.004 mPa·s
same,viscosity,"308.15 K, 100 kPa, x2 = 0.1021",0.828 ± 0.01 mPa·s
same,viscosity,"308.15 K, 100 kPa, x2 = 0.1994",0.751 ± 0.009 mPa·s
same,viscosity,"308.15 K, 100 kPa, x2 = 0.306",0.668 ± 0.008 mPa·s
same,viscosity,"308.15 K, 100 kPa, x2 = 0.4014",0.602 ± 0.008 mPa·s
same,viscosity,"308.15 K, 100 kPa, x2 = 0.4991",0.538 ± 0.007 mPa·s
same,viscosity,"308.15 K, 100 kPa, x2 = 0.601",0.473 ± 0.006 mPa·s
same,viscosity,"308.15 K, 100 kPa, x2 = 0.7028",0.415 ± 0.005 mPa·s
same,viscosity,"308.15 K, 100 kPa, x2 = 0.7989",0.365 ± 0.005 mPa·s
same,viscosity,"308.15 K, 100 kPa, x2 = 0.9",0.315 ± 0.004 mPa·s
same,viscosity,"313.15 K, 100 kPa, x2 = 0.1021",0.773 ± 0.01 mPa·s
same,viscosity,"313.15 K, 100 kPa, x2 = 0.1994",0.704 ± 0.009 mPa·s
same,viscosity,"313.15 K, 100 kPa, x2 = 0.306",0.627 ± 0.008 mPa·s
same,viscosity,"313.15 K, 100 kPa, x2 = 0.4014",0.567 ± 0.007 mPa·s
same,viscosity,"313.15 K, 100 kPa, x2 = 0.4991",0.508 ± 0.006 mPa·s
same,viscosity,"313.15 K, 100 kPa, x2 = 0.601",0.449 ± 0.006 mPa·s
same,viscosity,"313.15 K, 100 kPa, x2 = 0.7028",0.395 ± 0.005 mPa·s
same,viscosity,"313.15 K, 100 kPa, x2 = 0.7989",0.348 ± 0.004 mPa·s
same,viscosity,"313.15 K, 100 kPa, x2 = 0.9",0.302 ± 0.004 mPa·s
same,viscosity,"318.15 K, 100 kPa, x2 = 0.1021",0.724 ± 0.009 mPa·s
same,viscosity,"318.15 K, 100 kPa, x2 = 0.1994",0.662 ± 0.008 mPa·s
same,viscosity,"318.15 K, 100 kPa, x2 = 0.306",0.591 ± 0.007 mPa·s
same,viscosity,"318.15 K, 100 kPa, x2 = 0.4014",0.535 ± 0.007 mPa·s
same,viscosity,"318.15 K, 100 kPa, x2 = 0.4991",0.481 ± 0.006 mPa·s
same,viscosity,"318.15 K, 100 kPa, x2 = 0.601",0.426 ± 0.005 mPa·s
same,viscosity,"318.15 K, 100 kPa, x2 = 0.7028",0.377 ± 0.005 mPa·s
same,viscosity,"318.15 K, 100 kPa, x2 = 0.7989",0.333 ± 0.004 mPa·s
same,viscosity,"318.15 K, 100 kPa, x2 = 0.9",0.292 ± 0.004 mPa·s
same,viscosity,"323.15 K, 100 kPa, x2 = 0.1021",0.68 ± 0.009 mPa·s
same,viscosity,"323.15 K, 100 kPa, x2 = 0.1994",0.623 ± 0.008 mPa·s
same,viscosity,"323.15 K, 100 kPa, x2 = 0.306",0.558 ± 0.007 mPa·s
same,viscosity,"323.15 K, 100 kPa, x2 = 0.4014",0.507 ± 0.006 mPa·s
same,viscosity,"323.15 K, 100 kPa, x2 = 0.4991",0.456 ± 0.006 mPa·s
same,viscosity,"323.15 K, 100 kPa, x2 = 0.601",0.406 ± 0.005 mPa·s
same,viscosity,"323.15 K, 100 kPa, x2 = 0.7028",0.36 ± 0.005 mPa·s
same,viscosity,"323.15 K, 100 kPa, x2 = 0.7989",0.319 ± 0.004 mPa·s
same,viscosity,"323.15 K, 100 kPa, x2 = 0.9",0.28 ± 0.004 mPa·s
CCCCCCCCCCC + CCCCCCC,viscosity,"297.15 K, 101.33 kPa, x2 = 0.5",0.6901 ± 0.0097 mPa·s
same,viscosity,"298.15 K, 101.33 kPa, x2 = 0.1084",0.9818 ± 0.012 mPa·s
same,viscosity,"298.15 K, 101.33 kPa, x2 = 0.2093",0.8983 ± 0.011 mPa·s
same,viscosity,"298.15 K, 101.33 kPa, x2 = 0.3019",0.8173 ± 0.01 mPa·s
same,viscosity,[1],0.7452 ± 0.0097 mPa·s
same,viscosity,"298.15 K, 101.33 kPa, x2 = 0.5067",0.672 ± 0.0089 mPa·s
same,viscosity,"298.15 K, 101.33 kPa, x2 = 0.6076",0.6072 ± 0.0082 mPa·s
same,viscosity,"298.15 K, 101.33 kPa, x2 = 0.7041",0.5479 ± 0.0076 mPa·s
same,viscosity,"298.15 K, 101.33 kPa, x2 = 0.8052",0.4894 ± 0.007 mPa·s
same,viscosity,"298.15 K, 101.33 kPa, x2 = 0.8998",0.4335 ± 0.0063 mPa·s
same,viscosity,"302.98 K, 100 kPa, x2 = 0.8",0.4886 ± 0.021 mPa·s
same,viscosity,"303.09 K, 100 kPa, x2 = 0.5",0.6364 ± 0.0091 mPa·s
same,viscosity,"303.09 K, 101.33 kPa, x2 = 0.5",0.6364 ± 0.0091 mPa·s
same,viscosity,"312.85 K, 101.33 kPa, x2 = 0.5",0.563 ± 0.0083 mPa·s
same,viscosity,"323.04 K, 100 kPa, x2 = 0.5",0.5009 ± 0.0077 mPa·s
same,viscosity,"323.04 K, 101.33 kPa, x2 = 0.5",0.5009 ± 0.0077 mPa·s
CCCCCCCCCCC + CCCCCCCC,viscosity,"298.15 K, 101.33 kPa, x2 = 0.1011",1.012 ± 0.013 mPa·s
same,viscosity,"298.15 K, 101.33 kPa, x2 = 0.2077",0.9375 ± 0.012 mPa·s
same,viscosity,"298.15 K, 101.33 kPa, x2 = 0.3112",0.8621 ± 0.011 mPa·s
same,viscosity,"298.15 K, 101.33 kPa, x2 = 0.406",0.8112 ± 0.01 mPa·s
same,viscosity,"298.15 K, 101.33 kPa, x2 = 0.5073",0.7521 ± 0.0099 mPa·s
same,viscosity,"298.15 K, 101.33 kPa, x2 = 0.6089",0.7019 ± 0.0093 mPa·s
same,viscosity,"298.15 K, 101.33 kPa, x2 = 0.7063",0.645 ± 0.0087 mPa·s
same,viscosity,"298.15 K, 101.33 kPa, x2 = 0.8047",0.6014 ± 0.0082 mPa·s
same,viscosity,"298.15 K, 101.33 kPa, x2 = 0.9039",0.5503 ± 0.0077 mPa·s
CCCCCCCCCCC + CCCCCCCCC,viscosity,"298.15 K, 101.33 kPa, x2 = 0.1034",1.03 ± 0.013 mPa·s
same,viscosity,"298.15 K, 101.33 kPa, x2 = 0.2088",0.9658 ± 0.012 mPa·s
same,viscosity,"298.15 K, 101.33 kPa, x2 = 0.3024",0.931 ± 0.012 mPa·s
same,viscosity,"298.15 K, 101.33 kPa, x2 = 0.4073",0.8929 ± 0.011 mPa·s
same,viscosity,"298.15 K, 101.33 kPa, x2 = 0.5057",0.8476 ± 0.011 mPa·s
same,viscosity,"298.15 K, 101.33 kPa, x2 = 0.6037",0.8141 ± 0.011 mPa·s
same,viscosity,"298.15 K, 101.33 kPa, x2 = 0.7055",0.77 ± 0.01 mPa·s
same,viscosity,"298.15 K, 101.33 kPa, x2 = 0.8002",0.7331 ± 0.0097 mPa·s
same,viscosity,"298.15 K, 101.33 kPa, x2 = 0.9038",0.687 ± 0.0092 mPa·s
CCCCCCCCCCC + CCCCCCCCCC,viscosity,"298.15 K, 101.33 kPa, x2 = 0.1074",1.056 ± 0.013 mPa·s
same,viscosity,"298.15 K, 101.33 kPa, x2 = 0.2094",1.03 ± 0.013 mPa·s
same,viscosity,"298.15 K, 101.33 kPa, x2 = 0.3054",1.009 ± 0.013 mPa·s
same,viscosity,"298.15 K, 101.33 kPa, x2 = 0.4086",0.9854 ± 0.012 mPa·s
same,viscosity,"298.15 K, 101.33 kPa, x2 = 0.5085",0.9556 ± 0.012 mPa·s
same,viscosity,"298.15 K, 101.33 kPa, x2 = 0.608",0.9393 ± 0.012 mPa·s
same,viscosity,"298.15 K, 101.33 kPa, x2 = 0.7092",0.9206 ± 0.012 mPa·s
same,viscosity,"298.15 K, 101.33 kPa, x2 = 0.8045",0.9013 ± 0.012 mPa·s
same,viscosity,"298.15 K, 101.33 kPa, x2 = 0.9056",0.868 ± 0.011 mPa·s
